We go through eight compounds from ChEMBL document CHEMBL1201862, “PubChem BioAssay data set” (2004).

Structures are written as SMILES.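 Compound exposure: 48 hours, 5 concentrations, 96-well plates. GI50 is the concentration that inhibits growth by half.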 Active and inactive are the calls of the source. No stated cut-off is given here; in the data, active = GI50 up to about 1.1 µM and inactive = higher.

Some test systems named below: SF-539; HOP-62; SNB-75; HCT-15; SK-MEL-28; SF-268; BT-549; HCT-116; ACHN; HOP-92; SN12C; SNB-19; OVCAR-8; NCI-H23; EKVX; M14; SW-620; NCI-H522; NCI/ADR-RES.
Assay in all cases: growth of human tumour cells (NCI), 48 h

With `COc1cc(C2c3[nH]c4ccccc4c3C[C@H]3COC(=O)N23)cc(OC)c1OC` (stereo partly specified), the GI50 in the assay with SF-539 is 0.035 µM (active); with HOP-62, 0.0467 µM (active); in the assay with SNB-75, 0.0923 µM (active); in the assay with HCT-15 it was 0.0471 µM; in the assay on SK-MEL-28, 0.0796 µM (active); with SF-268 it was 0.132 µM (active). For the same compound, the GI50 in the assay with BT-549 is 0.163 µM (active); with HCT-116 it was 0.0416 µM (active); with ACHN, 0.214 µM (active); in the assay with HOP-92, 0.92 µM (active); with SN12C it was 0.163 µM (active); in the assay with SNB-19, 0.0803 µM (active). The GI50 in the assay on OVCAR-8 was 0.178 µM (active); with NCI-H23, 0.0776 µM (active); with EKVX, < 0.01 µM (active); in the assay with M14, 0.0611 µM (active); with SW-620 it was 0.051 µM (active); in the assay with NCI-H522, 0.015 µM (active).

On to `OC1(c2ccc3ccccc3c2)c2ccc3ccccc3c2C2=NCCN21` (stereo unspecified), for which the GI50 in the assay on SF-539 is 19.5 µM (inactive); in the assay on HOP-62, 18.5 µM (inactive); in the assay on SNB-75, 24.9 µM (inactive); in the assay on HCT-15, more than 100 µM; in the assay with SK-MEL-28 it was > 100 µM (inactive); in the assay on SF-268 it was 54.3 µM (inactive). The GI50 in the assay with BT-549 is > 100 µM (inactive); in the assay on NCI/ADR-RES, 37.1 µM (inactive); in the assay on HCT-116 it was 34.6 µM (inactive); with ACHN, > 100 µM (inactive); with HOP-92 it was > 100 µM (inactive); in the assay with SN12C it was > 100 µM (inactive). Moreover, the GI50 was 66.8 µM (inactive) in the assay on SNB-19; 23.3 µM (inactive) with OVCAR-8; > 100 µM (inactive) in the assay with NCI-H23; > 100 µM (inactive) in the assay with EKVX; > 100 µM (inactive) with M14; 94.8 µM (inactive) in the assay with SW-620.

Turning to `CSc1nc2c3ccccc3ccn2c1C(=O)N/N=C/c1ccccc1`, the GI50 in the assay on SF-539 was 1.43 µM (inactive); in the assay with HOP-62, 13 µM (inactive); in the assay with SNB-75 it was > 42.7 µM (inactive); with HCT-15, more than 100 µM; in the assay with SK-MEL-28 it was > 100 µM (inactive); in the assay on SF-268 it was 19.7 µM (inactive). The GI50 in the assay with NCI/ADR-RES is 28.9 µM (inactive); in the assay on HCT-116, 15.5 µM (inactive); with ACHN, 9.06 µM (inactive); with HOP-92 it was 1.65 µM (inactive); with SN12C, 28.1 µM (inactive); in the assay with OVCAR-8 it was 18.5 µM (inactive). In addition, the GI50 in the assay on NCI-H23 was 30.2 µM (inactive); in the assay with EKVX it was > 100 µM (inactive); in the assay on M14, > 100 µM (inactive); with SW-620 it was 97.9 µM (inactive); with NCI-H522 it was > 94.4 µM (inactive).

On to `COc1cc(/C=N/n2c(Cc3ccc(Cl)cc3)n[nH]c2=O)cc(OC)c1OC`, for which the GI50 is 44.8 µM (inactive) in the assay on SF-539; 37.6 µM (inactive) with HOP-62; 65.2 µM (inactive) in the assay on SNB-75; more than 100 µM in the assay on HCT-15; > 100 µM (inactive) in the assay on SK-MEL-28; 46.3 µM (inactive) with SF-268. Moreover, the GI50 with BT-549, with NCI/ADR-RES, in the assay with HCT-116, in the assay with ACHN, in the assay with SN12C and with SNB-19 was > 100 µM (inactive) throughout. The GI50 was 26.5 µM (inactive) in the assay with OVCAR-8; > 100 µM (inactive) in the assay on NCI-H23; > 100 µM (inactive) in the assay on EKVX; > 100 µM (inactive) in the assay on M14; > 100 µM (inactive) with SW-620.

`CCN(CC)C(=O)CCNC(C)Cc1c[nH]c2ccccc12` (stereo unspecified): the GI50 with SF-539 was > 100 µM (inactive); in the assay on HOP-62, > 100 µM (inactive); with SNB-75, > 100 µM (inactive); in the assay with HCT-15, more than 100 µM; in the assay with SK-MEL-28 it was > 100 µM (inactive); with SF-268, > 100 µM (inactive). The GI50 with NCI/ADR-RES is > 100 µM (inactive); in the assay on HCT-116, > 100 µM (inactive); in the assay with ACHN, > 100 µM (inactive); with HOP-92, 96.8 µM (inactive); with SN12C, > 100 µM (inactive); in the assay on SNB-19, > 100 µM (inactive). In addition, the GI50 with OVCAR-8, in the assay with NCI-H23, in the assay on EKVX, in the assay with M14, in the assay on SW-620 and in the assay on NCI-H522 was > 100 µM (inactive) throughout.

On to `CCCCOc1ccc(S(=O)(=O)/N=C(\NN)Nc2ccc(Cl)cc2)cc1`, for which the GI50 was 17.7 µM (inactive) with SF-539; 20.4 µM (inactive) in the assay with HOP-62; 12.2 µM (inactive) in the assay on SNB-75; 36 µM with HCT-15; 43.7 µM (inactive) in the assay on SK-MEL-28; 17.4 µM (inactive) in the assay with SF-268. In addition, the GI50 in the assay on BT-549 was > 100 µM (inactive); with NCI/ADR-RES it was 24.5 µM (inactive); in the assay with HCT-116, 20 µM (inactive); with ACHN, 69.7 µM (inactive); in the assay with HOP-92 it was 25.2 µM (inactive); with SN12C it was 19.2 µM (inactive). In addition, the GI50 with SNB-19 is 53.5 µM (inactive); in the assay with OVCAR-8 it was 19 µM (inactive); with NCI-H23, 36.1 µM (inactive); in the assay on EKVX, 45.4 µM (inactive); in the assay with M14, 24.2 µM (inactive); in the assay with SW-620, 29.4 µM (inactive).

Turning to `COc1ccc(NC2CC(C)N(C(=O)c3ccccc3)O2)cc1` (stereo unspecified), the GI50 was > 10 µM (inactive) in the assay on SF-539; > 10 µM (inactive) with HOP-62; > 10 µM (inactive) with SNB-75; more than 10 µM in the assay on HCT-15; > 10 µM (inactive) in the assay on SK-MEL-28; > 10 µM (inactive) with SF-268. For the same compound, the GI50 is 8.79 µM (inactive) in the assay with BT-549; > 10 µM (inactive) in the assay with NCI/ADR-RES; > 10 µM (inactive) with HCT-116; > 10 µM (inactive) in the assay with ACHN; > 10 µM (inactive) with SN12C; > 10 µM (inactive) with SNB-19. Further, the GI50 in the assay on OVCAR-8, in the assay on NCI-H23, in the assay on EKVX, in the assay on M14, with SW-620 and in the assay with NCI-H522 was > 10 µM (inactive) in each case.

As to `CC(C)(C)OC(=O)C1/C(=C/CO)CN1C(=O)OC(C)(C)C` (stereo unspecified), the GI50 in the assay on SF-539 is > 100 µM (inactive); in the assay with HOP-62 it was > 100 µM (inactive); in the assay on HCT-15, more than 100 µM; in the assay on SK-MEL-28, > 100 µM (inactive); in the assay on SF-268, > 100 µM (inactive); in the assay with BT-549, > 100 µM (inactive). Also, the GI50 in the assay on NCI/ADR-RES, in the assay on HCT-116, in the assay with ACHN, in the assay with HOP-92, with SN12C and in the assay on SNB-19 was > 100 µM (inactive) in each case. The GI50 in the assay with OVCAR-8, in the assay on NCI-H23, in the assay on EKVX, in the assay with M14 and with SW-620 was > 100 µM (inactive) in each case.
